Measured values taken from patent publication US8097624B2, “Cycloalkyl derivatives of 3-hydroxy-4-pyridinones” (Apotex Inc., priority 2006, dated 2012).
Where a name gives a salt, the structure may show the parent alone. Read-outs that look alike come from different tables or passages of the source.

What was measured:
[1] = Distribution coefficient determination (D7.4), 1-octanol / MOPS buffer; type: physicochemical; conditions: 1-octanol / MOPS buffer pH 7.4
Method: MOPS buffer (50 mM, pH=7.4) and 1-octanol were used as the aqueous phase and the organic phase, respectively, for distribution coefficient determinations. The MOPS buffer and 1-octanol were pre-saturated with each other before use.
In a typical experiment, an organic stock solution of Apo6618 (1-cyclopropyl-3-hydroxy-6-methyl-4-oxo-1,4-dihydro-pyridine-2-carboxylic acid cyclopropylamide) was prepared by weighing out 0.50 mg of the compound into a 10-mL volumetric flask and bringing to volume with 1-octanol. The solution was then sonicated for 60 minutes so that the sample could dissolve completely. The concentration of the stock solution was calculated as C^0org=2.0×10^−4 M. The organic standard solution of Apo6618 with 2.0×10^−5 M was prepared in a 10-mL volumetric flask by 10 times dilution of the stock solution with 1-octanol. The sample solution was prepared in a 10-mL volumetric flask. The stock sample solution (3 ml) was pipetted into the flask followed by the addition of MOPS buffer (3 ml). The standard and sample solutions were then vortexed for 2 hours. After vortexing, the solutions were transferred to test tubes and centrifuged at 4000 rpm for 15 minutes. UV-Vis spectra were recorded for the standard solution and the organic (top) phase of the sample solution at 22° C. The distribution coefficient, D7.4, was calculated using the following equation: D7.4=[Aorg/(C^0orgεorg−Aorg)]×(Vaqu/Vorg)
Where εorg=the molar extinction coefficient of the peak wavelength (λmax) obtained from the UV-Vis spectrum of the organic standard solution; Aorg=absorbance of the organic phase in the sample solution at the same λmax; C^0org=the concentration of the stock solution; Vaqu=the volume of MOPS buffer in the sample solution; Vorg=the volume of the stock solution in the sample solution.

[2] = pKa determination by potentiometric or spectrophotometric titration; type: physicochemical; conditions: titration in 0.1 M NaCl at 22° C.
Method: The pKa values of ligands were determined by potentiometric titration when a ligand concentration greater than 1×10^−2 M in water could be prepared. In a typical experiment, the sample solution (2.67×10^−2 M) was prepared by the following method: Apo6619 (92.6 mg) was weighed into a 25-ml beaker, followed by the addition of 0.1 M NaCl (15 ml). The mixture was sonicated for 10 minutes to give a clear colorless solution. Nitrogen gas was then allowed to bubble through the solution. 1.000 N Hydrochloric acid (624 μl, 1.5 equivalent) was added to the solution to give pH 1.88. The solution was allowed to equilibrate at 22° C. for 60 minutes.
The solution was then titrated against 1.000 N NaOH at 22° C. to reach pH 11.8. For each addition of base, the solution was allowed to equilibrate until a constant pH reading was reached. The volume of the base added and the pH reading were recorded for each measurement. 137 measurements were taken to finish the experiment.
The data set of pH vs. base volume was analyzed using Hyperquad 2000 (Version 2.1, Peter Gans, University of Leeds).
The pKa values of ligands can be determined by spectrophotometric titration when both the conjugated acid and base absorb in the UV-Visible region. In a typical experiment, the sample solution was prepared by the following method: Apo6617 (0.792 mg) was weighed into an 80-ml beaker, followed by the addition of 0.1 M NaCl (50 ml). The mixture was sonicated for 5 minutes to give a clear colorless solution. Nitrogen gas was allowed to bubble through the solution. 1.000 N NaOH (50 μl) was added to give pH 10.9. The solution was allowed to equilibrate at 22° C. for 1 hour. A sipper system was used for the circulation of the sample solution between the beaker and the flow cell.
The sample solution was titrated against standard hydrochloric acid solutions at 22° C. to reach pH 1.40. After each addition of acid the solution was allowed to equilibrate until a constant pH reading was reached. The pH and the UV-Vis spectrum were recorded for each measurement. The peak wavelengths of the deprotonated species (L^−), the neutral species (LH), and the protonated species (LH2^+) were 314 nm, 281 nm, and 249 nm, respectively. In the region of pH>6, after each addition of acid there was a slight decrease in the absorbance at 314 nm and a slight increase at 281 nm in each spectrum, whereas in the region of pH<5, after each addition of acid there was a slight decrease in the absorbance at 281 nm and a slight increase at 249 nm in each spectrum. The solution was titrated until there was no obvious change in the spectra after several subsequent additions of acid. 116 measurements were taken to finish the experiment.
The resulting data set was then analyzed using pHAB (Peter Gans, University of Leeds).

[3] = Metal complexation constants, Fe system (spectrophotometric titration; pM by Hyss); type: binding; conditions: for Log β3: Fe(III) overall complexation constant; for pFe^3+: total iron 10^−6 M, ligand 10^−5 M, pH 7.4, calculated from experimental pKa and complexation constants
Method: Compounds of this invention are designed to improve properties to known deferiprone analogues. […]. The definition of pFe^3+ used herein is the concentration of ferric ion in solution when the total amount of iron equals 10^−6 M and the concentration of ligand is 10^−5 M and pH is 7.4. It is calculated using experimental determined pKa and metal complexation constants using Hyperquad software (Version 2.1, Peter Gans, University of Leeds). The lowering of the pKa value of the C3 phenolic OH to less than 8.8 ensures that a higher pFe^3+ value when combined with a favorable complexation constant β3. The concept of complexation is detailed below.
The stepwise and overall complexation constants of a bidentate ligand such as 3-hydroxy-4-pyridinone follow: Fe(III)+Ligand→Fe[Ligand]1K1 Fe[Ligand]1+Ligand→Fe[Ligand]2K2 Fe[Ligand]2+Ligand→Fe[Ligand]3K3 Complexation constant β3=K1.K2.K3
Stepwise formation constants for M^n+-ligand systems were determined by spectrophotometric titration when metal complexes have a strong absorbance in the visible region due to ligand to metal charge transfer. In a typical experiment, the sample solution was prepared according to the following method: Apo6619 (10.7 mg) was weighed into an 80-ml beaker, followed by the addition of 0.1 M NaCl (50 ml). The mixture was sonicated for 10 minutes to give a clear colorless solution. Iron stock solution (atomic absorption standard, Aldrich, 496 μl, 8.93E-06 moles) was pipetted into the solution followed by the addition of 1.000 N NaOH (137 μl). The molar ratio between the total iron and the total Apo6619 was 1:5.4. The mixture was allowed to equilibrate at room temperature overnight. Nitrogen was allowed to bubble through the solution. 1.000 N Hydrochloric acid (3 ml) was then added to the solution to give pH 1.5. The solution was allowed to equilibrate at 22° C. for 3 hours.
A sipper system was used for the circulation of the sample solution between the beaker and the flow cell.
The sample solution was titrated against standard NaOH solutions at 22° C. to reach pH 6.89. After each addition of base the solution was allowed to equilibrate until a constant pH reading was reached. The pH and the UV-Vis spectrum were recorded for each measurement. For each measurement enough base was added so that there was a slight increase in the absorbance of the spectrum. The solution was titrated until there was no obvious increase in the spectra after several subsequent additions of base. Altogether 64 measurements were taken to finish the experiment.
[…]; pM^n+ is defined as −log [M(H2O)m]^n+ at physiological conditions, i.e.: pH 7.4, a ligand concentration of 10 μM, and a metal concentration of 1 μM.
To calculate pM^n+ for a MLn system, βn and pKa values are needed (βn are the formation constants for M^n++n L^− ? MLn; pKa are the equilibrium constants for L^−+n H^+ ? LHn^(n−1)+). The pM^n+ can be calculated by using Hyss software (Hyperquad Stimulation and Speciation software: HYSS2© 2000 Protonic Sofware).

[4] = U.S. Pat. No. 6,335,353; cited from earlier work
[5] = cited from earlier work
[6] = Redox potentials of iron complexes by cyclic voltammetry; type: physicochemical; conditions: glassy carbon working electrode, 2.0 mM, pH 7.4; for E1/2 / Ep^ox / Ep^red: vs Ag/AgCl

Molecule | D7.4 [1] | pKas (higher value, phenolic C3 OH) [2] | pKas (lower value, LH2+) [2] | Log β3 [3] | pFe^3+ [3] | also measured
Cc1cc(=O)c(O)c(C(=O)NC2CC2)n1C1CC1 [Apo6618, 1-Cyclopropyl-3-hydroxy-6-methyl-4-oxo-1,4-dihydro-pyridine-2-carboxylic Acid Cyclopropylamide] | 0.331 | 8.6 | 2.5 | 33.6 | 20.5 | 
Cc1cc(=O)c(O)c(C(=O)NC2CCCC2)n1C [Apo6620, N-cyclopentyl-3-hydroxy-1,6-dimethyl-4-oxo-1,4-dihydro-pyridine-2-carboxamide] | 0.78 | 8.7 | 2.7 | 33.8 | 20.3 | melting point: 289.3 °C (dec.)
Cc1cc(=O)c(O)c(C(=O)NC2CCCCC2)n1C [Apo6621, 3-Hydroxy-1,6-dimethyl-4-oxo-1,4-dihydro-pyridine-2-carboxylic Acid Cyclohexylamide] | 2.2 | 8.7 | 2.5 | 34.3 | 20.9 | 
Cc1cc(=O)c(O)c(C(=O)NC2CCC2)n1C [Apo6622, N-cyclobutyl-3-hydroxy-1,6-dimethyl-4-oxo-1,4-dihydropyridine-2-carboxamide] | 0.357 | 8.6 | 2.8 | 33.9 | 20.8 | 
CNC(=O)c1c(O)c(=O)cc(C)n1C [CP502, 1,6-Dimethyl-3-hydroxy-4(1H)-pyridinone-2-carboxy-(N-methyl)-amide hydrochloride, reference compound] | 0.04 | 8.5 | 2.7 | 33.6 | 20.9 | O-glucuronidation at the C3 oxygen [4]: effectively blocked the O-glucuronidation
CC(=O)N([O-])CCCCCNC(=O)CCC(=O)N([O-])CCCCCNC(=O)CCC(=O)N([O-])CCCCCN.[Fe+3] [Fe(DFO)] |  |  |  |  |  | E1/2 literature value ([5]; vs Ag/AgCl, Crumbliss et al, Inorganic Chemistry 2003): −688 mV; ΔEp [6]: 112 mV; E1/2 [6]: −698 mV; Ep^ox [6]: −642 mV; Ep^red [6]: −754 mV
Cc1c([O-])c(=O)ccn1C.Cc1c([O-])c(=O)ccn1C.Cc1c([O-])c(=O)ccn1C.[Fe+3] [Fe(deferiprone)3] |  |  |  |  |  | ΔEp [6]: 107 mV; E1/2 [6]: −834 mV; Ep^ox [6]: −780 mV; Ep^red [6]: −887 mV
Fe-transferrin: iron bound to transferrin in human blood |  |  |  |  |  | E1/2 ([5]; vs. Ag/AgCl): −720 mv; E1/2 ([5]; vs. NHE): −500 mv
